In brackets after ≈: the same amount, converted by molar mass.
Tested on: Staphylococcus aureus
Test: Antibacterial activity against Staphylococcus aureus ATCC 25923 after 24 hrs by micro broth dilution method
Format: functional
Conditions: ATCC 25923, 24 h

First: CCCCCCCCCCCCN(Cc1nnn[nH]1)c1ccccc1
Second: Fc1cccc(CN(Cc2nnn[nH]2)c2ccccc2)c1
The MIC of the first is 2-fold higher: 128 µg/mL (≈ 373 µM) for the first, 64 µg/mL (≈ 226 µM) for the second.

N#CCN(Cc1ccccc1F)c1ccccc1 and Cc1ccc(N(CC#N)Cc2ccc(Cl)cc2Cl)cc1 are the same in MIC: 128 µg/mL (≈ 533 µM) for the first, 128 µg/mL (≈ 419 µM) for the second.

Going from COc1ccc(N(Cc2nnn[nH]2)Cc2ccc(F)cc2F)cc1 to COc1ccc(N(Cc2nnn[nH]2)Cc2ccc(Cl)cc2Cl)cc1, the MIC falls from 64 µg/mL (≈ 193 µM) to 32 µg/mL (≈ 87.9 µM) (2-fold).

Tested on: Aspergillus flavus
Test: Antifungal activity against Aspergillus flavus after 24 hrs by micro broth dilution method
Format: functional
Conditions: not given

CCCCCCCCCCCCN(Cc1nnn[nH]1)c1ccccc1 and Fc1cccc(CN(Cc2nnn[nH]2)c2ccccc2)c1 are the same in MIC: 32 µg/mL (≈ 93.2 µM) for the first, 32 µg/mL (≈ 113 µM) for the second.

N#CCN(Cc1ccccc1F)c1ccccc1 and Cc1ccc(N(CC#N)Cc2ccc(Cl)cc2Cl)cc1 are the same in MIC: 128 µg/mL (≈ 533 µM) for the first, 128 µg/mL (≈ 419 µM) for the second.

Compared with COc1ccc(N(Cc2nnn[nH]2)Cc2ccc(F)cc2F)cc1, COc1ccc(N(Cc2nnn[nH]2)Cc2ccc(Cl)cc2Cl)cc1 is 2-fold lower in MIC: 32 µg/mL (≈ 96.6 µM) for the first, 16 µg/mL (≈ 43.9 µM) for the second.

Tested on: Candida albicans
Test: Antifungal activity against Candida albicans ATCC 90029 after 24 hrs by micro broth dilution method
Format: functional
Conditions: ATCC 90029, 24 h

Compared with CCCCCCCCCCCCN(Cc1nnn[nH]1)c1ccccc1, Fc1cccc(CN(Cc2nnn[nH]2)c2ccccc2)c1 is 4-fold lower in MIC: 128 µg/mL (≈ 373 µM) for the first, 32 µg/mL (≈ 113 µM) for the second.

Going from N#CCN(Cc1ccccc1F)c1ccccc1 to Cc1ccc(N(CC#N)Cc2ccc(Cl)cc2Cl)cc1, the MIC falls from 128 µg/mL (≈ 533 µM) to 64 µg/mL (≈ 210 µM) (2-fold).

Compared with COc1ccc(N(Cc2nnn[nH]2)Cc2ccc(F)cc2F)cc1, COc1ccc(N(Cc2nnn[nH]2)Cc2ccc(Cl)cc2Cl)cc1 is 2-fold lower in MIC: 32 µg/mL (≈ 96.6 µM) for the first, 16 µg/mL (≈ 43.9 µM) for the second.

Tested on: Staphylococcus aureus
Test: Antibacterial activity against methicillin-resistant Staphylococcus aureus N315 after 24 hrs by micro broth dilution method
Format: functional
Conditions: N315, 24 h

Going from CCCCCCCCCCCCN(Cc1nnn[nH]1)c1ccccc1 to Fc1cccc(CN(Cc2nnn[nH]2)c2ccccc2)c1, the MIC falls from 128 µg/mL (≈ 373 µM) to 64 µg/mL (≈ 226 µM) (2-fold).

N#CCN(Cc1ccccc1F)c1ccccc1 and Cc1ccc(N(CC#N)Cc2ccc(Cl)cc2Cl)cc1 are the same in MIC: 128 µg/mL (≈ 533 µM) for the first, 128 µg/mL (≈ 419 µM) for the second.

COc1ccc(N(Cc2nnn[nH]2)Cc2ccc(F)cc2F)cc1 and COc1ccc(N(Cc2nnn[nH]2)Cc2ccc(Cl)cc2Cl)cc1 are the same in MIC: 64 µg/mL (≈ 193 µM) for the first, 64 µg/mL (≈ 176 µM) for the second.

Tested on: not listed separately
Test: Ionization constant, pKa of the compound by UV spectroscopy
Format: physicochemical
Conditions: not given

Going from CCCCCCCCCCCCN(Cc1nnn[nH]1)c1ccccc1 to Fc1cccc(CN(Cc2nnn[nH]2)c2ccccc2)c1, the pKa falls from 4.92 to 4.19.

COc1ccc(N(Cc2nnn[nH]2)Cc2ccc(F)cc2F)cc1 and COc1ccc(N(Cc2nnn[nH]2)Cc2ccc(Cl)cc2Cl)cc1 are within 0.2 log units of each other in pKa: 4.31 for the first, 4.29 for the second.

Tested on: Bacillus sp.
Test: Antibacterial activity against Bacillus proteus ATCC 13315 after 24 hrs by micro broth dilution method
Format: functional
Conditions: Bacillus sp. (in: firmicutes), ATCC 13315, 24 h

First: CCCCCCCCCCCCN(Cc1nnn[nH]1)c1ccccc1
Second: Fc1cccc(CN(Cc2nnn[nH]2)c2ccccc2)c1
The MIC of the first is 4-fold higher: 256 µg/mL (≈ 745 µM) for the first, 64 µg/mL (≈ 226 µM) for the second.

N#CCN(Cc1ccccc1F)c1ccccc1 and Cc1ccc(N(CC#N)Cc2ccc(Cl)cc2Cl)cc1 are the same in MIC: 512 µg/mL (≈ 2130 µM) for the first, 512 µg/mL (≈ 1680 µM) for the second.

Compared with COc1ccc(N(Cc2nnn[nH]2)Cc2ccc(F)cc2F)cc1, COc1ccc(N(Cc2nnn[nH]2)Cc2ccc(Cl)cc2Cl)cc1 is 2-fold lower in MIC: 64 µg/mL (≈ 193 µM) for the first, 32 µg/mL (≈ 87.9 µM) for the second.

Tested on: Escherichia coli
Test: Antibacterial activity against Escherichia coli DH52 after 24 hrs by micro broth dilution method
Format: functional
Conditions: DH52, 24 h

First: CCCCCCCCCCCCN(Cc1nnn[nH]1)c1ccccc1
Second: Fc1cccc(CN(Cc2nnn[nH]2)c2ccccc2)c1
The MIC of the first is 4-fold higher: 128 µg/mL (≈ 373 µM) for the first, 32 µg/mL (≈ 113 µM) for the second.

Compared with N#CCN(Cc1ccccc1F)c1ccccc1, Cc1ccc(N(CC#N)Cc2ccc(Cl)cc2Cl)cc1 is 2-fold higher in MIC: 128 µg/mL (≈ 533 µM) for the first, 256 µg/mL (≈ 839 µM) for the second.

First: COc1ccc(N(Cc2nnn[nH]2)Cc2ccc(F)cc2F)cc1
Second: COc1ccc(N(Cc2nnn[nH]2)Cc2ccc(Cl)cc2Cl)cc1
The MIC of the first is 2-fold higher: 64 µg/mL (≈ 193 µM) for the first, 32 µg/mL (≈ 87.9 µM) for the second.

Tested on: Micrococcus luteus
Test: Antibacterial activity against Micrococcus luteus ATCC 4698 after 24 hrs by micro broth dilution method
Format: functional
Conditions: ATCC 4698, 24 h

Compared with CCCCCCCCCCCCN(Cc1nnn[nH]1)c1ccccc1, Fc1cccc(CN(Cc2nnn[nH]2)c2ccccc2)c1 is 2-fold lower in MIC: 128 µg/mL (≈ 373 µM) for the first, 64 µg/mL (≈ 226 µM) for the second.

First: N#CCN(Cc1ccccc1F)c1ccccc1
Second: Cc1ccc(N(CC#N)Cc2ccc(Cl)cc2Cl)cc1
The MIC of the first is 2-fold lower: 256 µg/mL (≈ 1070 µM) for the first, 512 µg/mL (≈ 1680 µM) for the second.

First: COc1ccc(N(Cc2nnn[nH]2)Cc2ccc(F)cc2F)cc1
Second: COc1ccc(N(Cc2nnn[nH]2)Cc2ccc(Cl)cc2Cl)cc1
The MIC of the first is 2-fold higher: 64 µg/mL (≈ 193 µM) for the first, 32 µg/mL (≈ 87.9 µM) for the second.

Tested on: Bacillus spizizenii
Test: Antibacterial activity against Bacillus subtilis ATCC 6633 after 24 hrs by micro broth dilution method
Format: functional
Conditions: ATCC 6633, 24 h

Going from CCCCCCCCCCCCN(Cc1nnn[nH]1)c1ccccc1 to Fc1cccc(CN(Cc2nnn[nH]2)c2ccccc2)c1, the MIC falls from 64 µg/mL (≈ 186 µM) to 32 µg/mL (≈ 113 µM) (2-fold).

Going from N#CCN(Cc1ccccc1F)c1ccccc1 to Cc1ccc(N(CC#N)Cc2ccc(Cl)cc2Cl)cc1, the MIC rises from 256 µg/mL (≈ 1070 µM) to 512 µg/mL (≈ 1680 µM) (2-fold).

Compared with COc1ccc(N(Cc2nnn[nH]2)Cc2ccc(F)cc2F)cc1, COc1ccc(N(Cc2nnn[nH]2)Cc2ccc(Cl)cc2Cl)cc1 is 2-fold lower in MIC: 64 µg/mL (≈ 193 µM) for the first, 32 µg/mL (≈ 87.9 µM) for the second.

Tested on: Candida
Test: Antifungal activity against Candida mycoderma after 24 hrs by micro broth dilution method
Format: functional
Conditions: not given

First: CCCCCCCCCCCCN(Cc1nnn[nH]1)c1ccccc1
Second: Fc1cccc(CN(Cc2nnn[nH]2)c2ccccc2)c1
The MIC of the first is 2-fold higher: 64 µg/mL (≈ 186 µM) for the first, 32 µg/mL (≈ 113 µM) for the second.

Compared with N#CCN(Cc1ccccc1F)c1ccccc1, Cc1ccc(N(CC#N)Cc2ccc(Cl)cc2Cl)cc1 is 4-fold higher in MIC: 128 µg/mL (≈ 533 µM) for the first, 512 µg/mL (≈ 1680 µM) for the second.

Going from COc1ccc(N(Cc2nnn[nH]2)Cc2ccc(F)cc2F)cc1 to COc1ccc(N(Cc2nnn[nH]2)Cc2ccc(Cl)cc2Cl)cc1, the MIC falls from 16 µg/mL (≈ 48.3 µM) to 8 µg/mL (≈ 22 µM) (2-fold).

Tested on: Cyberlindnera jadinii
Test: Antifungal activity against Candida utilis ATCC 9950 after 24 hrs by micro broth dilution method
Format: functional
Conditions: Williopsis jadinii, ATCC 9950, 24 h

First: CCCCCCCCCCCCN(Cc1nnn[nH]1)c1ccccc1
Second: Fc1cccc(CN(Cc2nnn[nH]2)c2ccccc2)c1
The MIC of the first is 4-fold higher: 64 µg/mL (≈ 186 µM) for the first, 16 µg/mL (≈ 56.5 µM) for the second.

Going from N#CCN(Cc1ccccc1F)c1ccccc1 to Cc1ccc(N(CC#N)Cc2ccc(Cl)cc2Cl)cc1, the MIC falls from 128 µg/mL (≈ 533 µM) to 64 µg/mL (≈ 210 µM) (2-fold).

Going from COc1ccc(N(Cc2nnn[nH]2)Cc2ccc(F)cc2F)cc1 to COc1ccc(N(Cc2nnn[nH]2)Cc2ccc(Cl)cc2Cl)cc1, the MIC falls from 16 µg/mL (≈ 48.3 µM) to 8 µg/mL (≈ 22 µM) (2-fold).

Tested on: Shigella dysenteriae
Test: Antibacterial activity against Shigella dysenteriae ATCC 51252 after 24 hrs by micro broth dilution method
Format: functional
Conditions: ATCC 51252, 24 h

Compared with CCCCCCCCCCCCN(Cc1nnn[nH]1)c1ccccc1, Fc1cccc(CN(Cc2nnn[nH]2)c2ccccc2)c1 is 8-fold lower in MIC: 256 µg/mL (≈ 745 µM) for the first, 32 µg/mL (≈ 113 µM) for the second.

Compared with N#CCN(Cc1ccccc1F)c1ccccc1, Cc1ccc(N(CC#N)Cc2ccc(Cl)cc2Cl)cc1 is 2-fold lower in MIC: 512 µg/mL (≈ 2130 µM) for the first, 256 µg/mL (≈ 839 µM) for the second.

Going from COc1ccc(N(Cc2nnn[nH]2)Cc2ccc(F)cc2F)cc1 to COc1ccc(N(Cc2nnn[nH]2)Cc2ccc(Cl)cc2Cl)cc1, the MIC falls from 64 µg/mL (≈ 193 µM) to 32 µg/mL (≈ 87.9 µM) (2-fold).

Tested on: not listed separately
Test: n-octanol/water partition coefficient, log P of the compound at 25 deg C after 24 hrs by saturation shake flask based UV spectroscopy
Format: physicochemical
Conditions: not given

Fc1cccc(CN(Cc2nnn[nH]2)c2ccccc2)c1 and COc1ccc(N(Cc2nnn[nH]2)Cc2ccc(F)cc2F)cc1 are within 0.2 log units of each other in logP at 24 h: 1.29 for the first, 1.37 for the second.

Work on COc1ccc(N(Cc2nnn[nH]2)Cc2ccc(Cl)cc2Cl)cc1 yielded a logP at 24 h of 1.58.

Tested on: Pseudomonas aeruginosa
Test: Antibacterial activity against Pseudomonas aeruginosa ATCC 27853 after 24 hrs by micro broth dilution method
Format: functional
Conditions: ATCC 27853, 24 h

Compared with CCCCCCCCCCCCN(Cc1nnn[nH]1)c1ccccc1, Fc1cccc(CN(Cc2nnn[nH]2)c2ccccc2)c1 is 4-fold lower in MIC: 256 µg/mL (≈ 745 µM) for the first, 64 µg/mL (≈ 226 µM) for the second.

Compared with N#CCN(Cc1ccccc1F)c1ccccc1, Cc1ccc(N(CC#N)Cc2ccc(Cl)cc2Cl)cc1 is 2-fold higher in MIC: 128 µg/mL (≈ 533 µM) for the first, 256 µg/mL (≈ 839 µM) for the second.

Going from COc1ccc(N(Cc2nnn[nH]2)Cc2ccc(F)cc2F)cc1 to COc1ccc(N(Cc2nnn[nH]2)Cc2ccc(Cl)cc2Cl)cc1, the MIC falls from 64 µg/mL (≈ 193 µM) to 32 µg/mL (≈ 87.9 µM) (2-fold).

Source: ChEMBL document CHEMBL3621169, “Synthesis of tetrazole compounds as a novel type of potential antimicrobial agents and their synergistic effects with clinical drugs and interactions with calf thymus DNA” (Medchemcomm, 2015)
